According to PubChem BioAssay (NCI):
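Compound exposure: 48 hours, 5 concentrations, 96-well plates. TGI: concentration producing complete growth inhibition.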

What was measured:
Test in all cases: inhibition of tumour cell growth, NCI panel, 48 h
[1] = system: 786-0 renal
[2] = system: A498 renal
[3] = system: A549 NSCLC
[4] = system: ACHN renal
[5] = system: BT-549 breast
[6] = system: CAKI-1 renal
[7] = system: COLO 205 colon
[8] = system: DU-145 prostate
[9] = system: EKVX NSCLC
[10] = system: HCC-2998 colon
[11] = system: HCT-116 colon
[12] = system: HCT-15 colon
[13] = system: HOP-62 NSCLC
[14] = system: HOP-92 NSCLC
[15] = system: HS 578T breast
[16] = system: HT29 colon
[17] = system: IGROV1 ovarian
[18] = system: K-562 leukemia
[19] = system: KM12 colon
[20] = system: LOX IMVI melanoma
[21] = system: M14 melanoma
[22] = system: MALME-3M melanoma
[23] = system: MCF7 breast
[24] = system: MDA-MB-231 breast
[25] = system: MDA-MB-435
[26] = system: MDA-N
[27] = system: MOLT-4 leukemia
[28] = system: NCI-H226 lung
[29] = system: NCI-H23 lung
[30] = system: NCI-H460 lung
[31] = system: NCI/ADR-RES ovarian
[32] = system: OVCAR-3 ovarian
[33] = system: OVCAR-4 ovarian
[34] = system: OVCAR-5 ovarian
[35] = system: OVCAR-8 ovarian
[36] = system: PC-3 prostate
[37] = system: RPMI-8226 leukemia
[38] = system: RXF 393 renal
[39] = system: SF-268 CNS
[40] = system: SF-295 CNS
[41] = system: SF-539 CNS
[42] = system: SK-MEL-2 melanoma
[43] = system: SK-MEL-28 melanoma
[44] = system: SK-MEL-5 melanoma
[45] = system: SK-OV-3 ovarian
[46] = system: SN12C renal
[47] = system: SNB-19 CNS
[48] = system: SNB-75 CNS
[49] = system: SR leukemia
[50] = system: SW-620 colon
[51] = system: T-47D breast
[52] = system: TK-10 renal
[53] = system: U251 CNS
[54] = system: UACC-257 melanoma
[55] = system: UACC-62 melanoma
[56] = system: UO-31 renal
[57] = system: CCRF-CEM leukemia
[58] = system: HL-60(TB) leukemia

In the case of `O=c1c(=O)c2cscc2c1=O`, the TGI [1] is reported as 10.1 µM, the TGI [2] is reported as > 25 µM and the TGI [3] is reported as > 25 µM. For the same molecule, the TGI [4] was 8.37 µM, the TGI [5] was 8.72 µM and the TGI [6] was 8.49 µM. The TGI [7] was 8.61 µM, the TGI [8] was 11.4 µM and the TGI [9] was 10.7 µM. It also gave a TGI [10] of 6.44 µM, a TGI [11] of 9.66 µM and a TGI [12] of 14.1 µM. For the same molecule, the TGI [13] was 10.8 µM, the TGI [14] was 11.2 µM and the TGI [15] was > 25 µM. The TGI [16] was 10.6 µM, the TGI [17] was 8.4 µM and the TGI [18] was 6.5 µM. The TGI [19] was 12.7 µM, the TGI [20] was 10 µM and the TGI [21] was 8.85 µM. The TGI [22] was 8.39 µM, the TGI [23] was 15.3 µM and the TGI [24] was 10 µM. For the same molecule, the TGI [25] was 9.85 µM, the TGI [26] was 9.72 µM and the TGI [27] was 10 µM. For the same molecule, the TGI [28] was 10.5 µM, the TGI [29] was 12.3 µM and the TGI [30] was 23.3 µM. For the same molecule, the TGI [31] was > 25 µM, the TGI [32] was 15.1 µM and the TGI [33] was 11.1 µM. The TGI [34] was 9.61 µM, the TGI [35] was 16.4 µM and the TGI [36] was 8.6 µM. For the same molecule, the TGI [37] was 12.1 µM, the TGI [38] was 9.2 µM and the TGI [39] was 8.82 µM. The TGI [40] was > 25 µM, the TGI [41] was 9.07 µM and the TGI [42] was 9.31 µM. For the same molecule, the TGI [43] was 9.37 µM, the TGI [44] was 7.89 µM and the TGI [45] was > 25 µM. The TGI [46] was 13.3 µM, the TGI [47] was 15.2 µM and the TGI [48] was 8.37 µM. For the same molecule, the TGI [49] was 1100 nM, the TGI [50] was 11.2 µM and the TGI [51] was 11.8 µM. It also gave a TGI [52] of 8.04 µM, a TGI [53] of 9.19 µM and a TGI [54] of 7.96 µM. For the same molecule, the TGI [55] was 8.75 µM and the TGI [56] was 9.6 µM.
In the case of `Cn1c(-c2ccccc2)cc(-c2cccs2)c1-c1ccsc1`, the TGI [1] is reported as > 100 µM, the TGI [2] is reported as > 100 µM and the TGI [3] is reported as > 100 µM. The TGI [4] was > 100 µM, the TGI [5] was > 100 µM and the TGI [6] was > 100 µM. The TGI [57] was > 100 µM, the TGI [7] was > 100 µM and the TGI [8] was > 100 µM. For the same molecule, the TGI [9] was > 100 µM, the TGI [10] was > 100 µM and the TGI [11] was > 100 µM. For the same molecule, the TGI [12] was > 100 µM, the TGI [58] was > 100 µM and the TGI [13] was > 100 µM. The TGI [14] was > 100 µM, the TGI [15] was > 100 µM and the TGI [16] was > 100 µM. For the same molecule, the TGI [17] was > 100 µM, the TGI [18] was > 100 µM and the TGI [19] was > 100 µM. The TGI [20] was > 100 µM, the TGI [21] was > 100 µM and the TGI [23] was > 100 µM. For the same molecule, the TGI [24] was > 100 µM, the TGI [25] was > 100 µM and the TGI [26] was > 100 µM. The TGI [27] was > 100 µM, the TGI [28] was > 100 µM and the TGI [29] was > 100 µM. For the same molecule, the TGI [30] was > 100 µM, the TGI [31] was > 100 µM and the TGI [32] was > 100 µM. The TGI [33] was > 100 µM, the TGI [34] was > 100 µM and the TGI [35] was > 100 µM. For the same molecule, the TGI [36] was > 100 µM, the TGI [37] was > 100 µM and the TGI [38] was > 100 µM. For the same molecule, the TGI [39] was > 100 µM, the TGI [40] was > 100 µM and the TGI [41] was > 100 µM. The TGI [42] was > 100 µM, the TGI [44] was > 100 µM and the TGI [45] was > 100 µM. For the same molecule, the TGI [46] was > 100 µM, the TGI [47] was > 100 µM and the TGI [48] was > 100 µM. The TGI [49] was > 100000 nM, the TGI [50] was > 100 µM and the TGI [51] was > 100 µM. The TGI [52] was > 100 µM, the TGI [53] was > 100 µM and the TGI [54] was > 100 µM. The TGI [55] was > 100 µM and the TGI [56] was > 100 µM.
